Reference: publication PMC8154419, “Druggable Hot Spots in the Schistosomiasis Cathepsin B1 Target Identified by Functional and Binding Mode Analysis of Potent Vinyl Sulfone Inhibitors” (ACS Infectious Diseases, 2020)
Values joined by “and” are separate entries in the source; they are usually repeats but may differ in a detail not shown here. Identical values can stand only once. Like-named read-outs stand apart in the source and are kept apart here.

Columns and labels:
SmCB1 [1] = target: T1, SmCB1 (Schistosoma mansoni, UniProt Q8MNY2, T185A/T300A); design: method as in PMID 21832058; conditions: reference compounds; SmCB1, Cbz–Phe–Arg–AMC, pH 5.5; read-out: Inhibition IC50; cited from earlier work
[2] = In vitro plasma stability; type: in vitro ADME; conditions: 5 μM inhibitor, pooled human plasma, 30 min, 37°C
Procedure: Finally, we evaluated the metabolic stability of the inhibitors in human plasma in vitro. The stability was expressed as the percentage of parental compound remaining in plasma after 30 min of incubation.
Figure S2. Antischistosomal activity, cytotoxicity, and plasma stability of selected vinyl sulfone inhibitors. A. Induction of phenotypic alterations by the inhibitors was determined with newly transformed schistosomula (NTS) of S. mansoni. The inhibitors were tested at 1 and 10 µM concentrations for 24, 48 and 72 h, and the resulting phenotypes are shown as descriptor s .2 B. Example of an inhibitor-induced phenotype in NTS of S. mansoni versus untreated controls. Images were captured using a Zeiss Axiovert 40 C inverted microscope (10x objective) and a Zeiss AxioCam MRc digital camera controlled by AxioVision 40 (v. 4.8.1.0) software. Scale bar = 0.2 mm. C. Cytotoxicity of the inhibitors towards four human cell lines expressed as % viability vs. untreated cells. Cells were treated with the indicated concentration of the compounds for 72 h and assayed by means of the XTT test (as described previously3). Standard deviation values were within 10% of the mean of tetraplicates. D. In vitro plasma stability was determined for 5 µM inhibitors incubated with pooled human plasma (Biowest) for 30 min at 37°C. The samples were deproteinized by acetonitrile a nd quantified by LC-MS (Exion LC AD/QTrap 6500+, AB Sciex). Data are expressed as a percentage of the remaining parent compound after 30 min incubation; standard deviations of the means ar e gi ve n for duplicate measurements.
(1 picture or pasted object on this page, not shown here)

[3] = test system: S. mansoni newly transformed schistosomula (NTS); experiment: Parasite assay and phenotype scoring of newly transformed schistosomula; type: cell-based, Schistosoma mansoni; conditions: score 0 to 4, 4 most severe
Procedure: The NTS were exposed to 1 and 10 μM inhibitors, and the resulting phenotypes were graded 0 through 4 from the least to the most severe (Figure 4B).[25],[26] […] The investigated inhibitors were also tested for their cytotoxicity against four human cell lines over 72 h.
Newly transformed schistosomula (NTS) of S. mansoni were prepared by mechanically transforming infective larvae (cercariae) as described previously.[67] NTS (200–300 parasites) were incubated in 200 μL of Basch Medium 169[68] containing 5% heat-inactivated fetal bovine serum, 100 U/mL penicillin, and 100 μg/mL streptomycin at 5% CO2 and 37 °C.[67],[69] […] We use single word or phrase “descriptors”[35] to record changes in movement, shape, and translucence (Figure S2).
Figure S2. Antischistosomal activity, cytotoxicity, and plasma stability of selected vinyl sulfone inhibitors. A. Induction of phenotypic alterations by the inhibitors was determined with newly transformed schistosomula (NTS) of S. mansoni. The inhibitors were tested at 1 and 10 µM concentrations for 24, 48 and 72 h, and the resulting phenotypes are shown as descriptor s .2 B. Example […]
captured using a Zeiss Axiovert 40 C inverted microscope (10x objective) and a Zeiss AxioCam MRc digital camera controlled by AxioVision 40 (v. 4.8.1.0) software. Scale bar = 0.2 mm. C. […]

human cathepsin B (HuCB) = target: T2, human cathepsin B (HuCB) (Homo sapiens, UniProt P07858); experiment: Second order rate constant (k2nd) of inhibition, human cathepsin B; type: biochemical
T2 construct: purchased Calbiochem
Procedure: (§1) (A) Sensitivity of SmCB1 and its human ortholog cathepsin B (HuCB) to inhibitors. The second order rate constants were measured in a kinetic activity assay with the fluorogenic peptide substrate Cbz–Phe–Arg–AMC at pH 5.5. […] Resulting phenotypes observed at three time points were graded by the severity score ranging from 0 to 4, with 4 being the most severe (see Figure S2A,B).
(§2) Inhibition measurements were performed in triplicates in 96-well microplates (100 μL assay volume) at 37 °C. […] The kinetics of product release was continuously monitored in an Infinite M1000 microplate reader (Tecan) at excitation and emission wavelengths of 360 and 465 nm, respectively. The IC50 values were determined by nonlinear regression using GraFit software. To determine the inhibition constant k2nd, the enzyme (40 pM SmCB1 or 60 pM HuCB) was added to a mixture of the fluorogenic substrate Cbz–Phe–Arg–AMC (20 μM for SmCB1 and 33 μM for HuCB) and an inhibitor (0–1 μM) in the assay buffer under assay conditions as above. The hydrolysis of substrate was monitored for 30 min in a microplate reader as described above. […] The second order rate constant, k2nd, was determined by fitting to the linear equation kobs = (k2nd[I])/(1 + [S]/KM), where [S] is the substrate concentration, [I] is the inhibitor concentration, and KM is the Michaelis–Menten constant.

SmCB1 [4] = experiment: biochemical; type: biochemical, Schistosoma mansoni; conditions: k2nd for SmCB1 to k2nd for human cathepsin B
Procedure: as §1, §2

SmCB1 [5] = target: T1, SmCB1; experiment: biochemical; type: biochemical; conditions: pH 5.5, read-out: second order rate constant k2nd SmCB1
Procedure: as §1, §2

SmCB1 [6] = target: T1, SmCB1; experiment: SmCB1 kinetic inhibition assay (IC50) with fluorogenic substrate Cbz–Phe–Arg–AMC; type: biochemical; conditions: recombinant SmCB1, Cbz–Phe–Arg–AMC, pH 5.5; mean ± SE, triplicate; n.i.: no significant inhibition at 100 μM
Description: Thirty-four peptidomimetic vinyl sulfone analogs (including vinyl sulfonamides and vinyl sulfonate esters) were explored as potential inhibitors of SmCB1 to infer the structural requirements of the inhibitor-binding subsites in the enzyme active site cleft. The compound scaffold is defined by positions P3 through P1′, and the substitutions were selected to provide a high diversity at P2 and P1′ (Table 1). These two positions were recently reported to display large differences in the subsite interaction energy in response to their structural modifications.[10] The compounds were screened in vitro against recombinant SmCB1, and their IC50 values were determined using a kinetic inhibition assay with the fluorogenic substrate Cbz–Phe–Arg–AMC.
Inhibition measurements were performed in triplicates in 96-well microplates (100 μL assay volume) at 37 °C. […] The kinetics of product release was continuously monitored in an Infinite M1000 microplate reader (Tecan) at excitation and emission wavelengths of 360 and 465 nm, respectively. The IC50 values were determined by nonlinear regression using GraFit software. To determine the inhibition constant k2nd, the enzyme (40 pM SmCB1 or 60 pM HuCB) was added to a mixture of the fluorogenic substrate Cbz–Phe–Arg–AMC (20 μM for SmCB1 and 33 μM for HuCB) and an inhibitor (0–1 μM) in the assay buffer under assay conditions as above. The hydrolysis of substrate was monitored for 30 min in a microplate reader as described above. An observed rate constant, kobs, was calculated at each inhibitor concentration by fitting the progress curve to the equation P = vi/kobs(1 – e^–kobst), where P is the product formation, vi is the initial velocity, and t is the reaction time. For both enzymes, kobs varied linearly with the inhibitor concentration showing that the dependence of kobs on the inhibitor concentration is nonsaturating. […] The second order rate constant, k2nd, was determined by fitting to the linear equation kobs = (k2nd[I])/(1 + [S]/KM), where [S] is the substrate concentration, [I] is the inhibitor concentration, and KM is the Michaelis–Menten constant. KM values determined for SmCB1 and HuCB were 25 and 38 μM, respectively.

T1 sequence (Q8MNY2 87-340 T185A/T300A): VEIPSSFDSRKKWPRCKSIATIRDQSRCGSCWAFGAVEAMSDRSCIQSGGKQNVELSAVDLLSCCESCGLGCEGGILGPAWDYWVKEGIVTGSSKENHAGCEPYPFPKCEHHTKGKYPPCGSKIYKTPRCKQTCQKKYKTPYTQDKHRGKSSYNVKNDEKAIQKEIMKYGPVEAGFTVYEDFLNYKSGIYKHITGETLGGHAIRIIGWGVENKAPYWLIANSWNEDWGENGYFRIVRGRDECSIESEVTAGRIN

SMILES	IC50 (SmCB1 [1]) [pM]	percentage of remaining parent compound in plasma [2] [%]	severity score ([3]; 1 μM, 24 hours)	severity score ([3]; 1 μM, 48 hours)	severity score ([3]; 1 μM, 72 hours)	severity score ([3]; 10 μM, 24 hours)	severity score ([3]; 10 μM, 48 hours)	severity score ([3]; 10 μM, 72 hours)	second order rate constant k2nd HuCB (human cathepsin B (HuCB); Cbz–Phe–Arg–AMC, pH 5.5, mean of triplicate)	kinact/KI (human cathepsin B (HuCB); pH 5.5, read-out: second order rate constant k2nd HuCB) [M⁻¹ s⁻¹]	selectivity ratio (SmCB1 [4])	kinact/KI (SmCB1 [5]) [M⁻¹ s⁻¹]	IC50 (SmCB1 [6])
CC(C)C[C@H](NC(=O)N1CCOCC1)C(=O)N[C@H](/C=C/S(=O)(=O)c1ccccc1)CCc1ccccc1 [K11017, morpholino urea-leucyl-homophenylalanyl-vinylsulfone-phenyl]	1710 ± 130	–	–	–	–	–	–	–	–	–	–	–	–
CN1CCN(C(=O)N[C@@H](Cc2ccccc2)C(=O)N[C@H](/C=C/S(=O)(=O)c2ccccc2)CCc2ccccc2)CC1 [K11777, N-methylpiperazine-phenylalanyl-homophenylalanyl-vinylsulfone-phenyl, reference compound]	2090 ± 80	88	0	0	3	0	1	3	–	–	–	–	–
CCOC(=O)C1CCN(C(=O)N[C@@H](Cc2ccc(O)cc2)C(=O)N[C@H](/C=C/S(=O)(=O)c2ccccn2)CCc2ccccc2)CC1 [WRR-391]	–	54	0	0	0	0	0	4	152 806 M^–1 s^–1	153000	~1.4	208000	~200 pM and 240 pM
